Source: PubChem BioAssay (NCI)
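Cultured in 96-well plates, cells were exposed to test compound for 48 hours across five concentrations. At the GI50, growth is halved. TGI is the concentration that stops growth completely.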

What was measured:
Experiment in all cases: NCI anticancer screen, dose series, 48 h
786-0 renal = tested on: 786-0 renal
A498 renal = tested on: A498 renal
A549 NSCLC = tested on: A549 NSCLC
ACHN renal = tested on: ACHN renal
BT-549 breast = tested on: BT-549 breast
CAKI-1 renal = tested on: CAKI-1 renal
CCRF-CEM leukemia = tested on: CCRF-CEM leukemia
COLO 205 colon = tested on: COLO 205 colon
DU-145 prostate = tested on: DU-145 prostate
EKVX NSCLC = tested on: EKVX NSCLC
HCC-2998 colon = tested on: HCC-2998 colon
HCT-116 colon = tested on: HCT-116 colon
HCT-15 colon = tested on: HCT-15 colon
HL-60(TB) leukemia = tested on: HL-60(TB) leukemia
HOP-62 NSCLC = tested on: HOP-62 NSCLC
HOP-92 NSCLC = tested on: HOP-92 NSCLC
HS 578T breast = tested on: HS 578T breast
HT29 colon = tested on: HT29 colon
IGROV1 ovarian = tested on: IGROV1 ovarian
K-562 leukemia = tested on: K-562 leukemia
KM12 colon = tested on: KM12 colon
LOX IMVI melanoma = tested on: LOX IMVI melanoma
M14 melanoma = tested on: M14 melanoma
MALME-3M melanoma = tested on: MALME-3M melanoma
MCF7 breast = tested on: MCF7 breast
MDA-MB-231 breast = tested on: MDA-MB-231 breast
MDA-MB-435 = tested on: MDA-MB-435
MOLT-4 leukemia = tested on: MOLT-4 leukemia
NCI-H226 lung = tested on: NCI-H226 lung

**Q.** `CCCCN(CCCC)CC(O)c1ccc(OCc2ccccc2)c2ccccc12` (stereo not drawn) was tested. Which GI50 (786-0 renal) did it give?
**A.** 2.56 µM

**Q.** And the TGI (786-0 renal)?
**A.** 6.25 µM

**Q.** What about the GI50 (A498 renal) of the same molecule?
**A.** 3.41 µM

**Q.** And the TGI (A498 renal)?
**A.** 14.5 µM

**Q.** What about the GI50 (A549 NSCLC) of the same molecule?
**A.** 8.45 µM

**Q.** And the TGI (A549 NSCLC)?
**A.** 22.4 µM

**Q.** And the GI50 (ACHN renal)?
**A.** 4.76 µM

**Q.** What about the TGI (ACHN renal) of the same molecule?
**A.** 18 µM

**Q.** And the GI50 (BT-549 breast)?
**A.** 5.32 µM

**Q.** What about the TGI (BT-549 breast) of the same molecule?
**A.** 17.2 µM

**Q.** And the GI50 (CAKI-1 renal)?
**A.** 1.98 µM

**Q.** What about the TGI (CAKI-1 renal) of the same molecule?
**A.** 10.9 µM

**Q.** And the GI50 (CCRF-CEM leukemia)?
**A.** 3.35 µM

**Q.** What about the TGI (CCRF-CEM leukemia) of the same molecule?
**A.** 16.3 µM

**Q.** And the GI50 (COLO 205 colon)?
**A.** 2.98 µM

**Q.** What about the TGI (COLO 205 colon) of the same molecule?
**A.** 12.1 µM

**Q.** What about the GI50 (DU-145 prostate) of the same molecule?
**A.** 8.63 µM

**Q.** What about the TGI (DU-145 prostate) of the same molecule?
**A.** 22.6 µM

**Q.** And the GI50 (EKVX NSCLC)?
**A.** 5.66 µM

**Q.** What about the TGI (EKVX NSCLC) of the same molecule?
**A.** 20.2 µM

**Q.** What about the GI50 (HCC-2998 colon) of the same molecule?
**A.** 2.36 µM

**Q.** And the TGI (HCC-2998 colon)?
**A.** 6.34 µM

**Q.** What about the GI50 (HCT-116 colon) of the same molecule?
**A.** 2.84 µM

**Q.** What about the TGI (HCT-116 colon) of the same molecule?
**A.** 11.7 µM

**Q.** And the GI50 (HCT-15 colon)?
**A.** 2.58 µM

**Q.** What about the TGI (HCT-15 colon) of the same molecule?
**A.** 7.47 µM

**Q.** What about the GI50 (HL-60(TB) leukemia) of the same molecule?
**A.** 2.51 µM

**Q.** And the TGI (HL-60(TB) leukemia)?
**A.** 8.25 µM

**Q.** What about the GI50 (HOP-62 NSCLC) of the same molecule?
**A.** 5.57 µM

**Q.** What about the TGI (HOP-62 NSCLC) of the same molecule?
**A.** 19.7 µM

**Q.** What about the GI50 (HOP-92 NSCLC) of the same molecule?
**A.** 1.87 µM

**Q.** What about the TGI (HOP-92 NSCLC) of the same molecule?
**A.** 6.27 µM

**Q.** What about the GI50 (HS 578T breast) of the same molecule?
**A.** 4.99 µM

**Q.** What about the TGI (HS 578T breast) of the same molecule?
**A.** 30.9 µM

**Q.** And the GI50 (HT29 colon)?
**A.** 1.52 µM

**Q.** And the TGI (HT29 colon)?
**A.** 4.55 µM

**Q.** And the GI50 (IGROV1 ovarian)?
**A.** 1.96 µM

**Q.** And the TGI (IGROV1 ovarian)?
**A.** 16.7 µM

**Q.** And the GI50 (K-562 leukemia)?
**A.** 2.82 µM

**Q.** What about the TGI (K-562 leukemia) of the same molecule?
**A.** 10.4 µM

**Q.** And the GI50 (KM12 colon)?
**A.** 3.4 µM

**Q.** What about the TGI (KM12 colon) of the same molecule?
**A.** 19.5 µM

**Q.** And the GI50 (LOX IMVI melanoma)?
**A.** 1.94 µM

**Q.** What about the TGI (LOX IMVI melanoma) of the same molecule?
**A.** 4.78 µM

**Q.** What about the GI50 (M14 melanoma) of the same molecule?
**A.** 3.13 µM

**Q.** What about the TGI (M14 melanoma) of the same molecule?
**A.** 11.4 µM

**Q.** And the GI50 (MALME-3M melanoma)?
**A.** 2.27 µM

**Q.** What about the TGI (MALME-3M melanoma) of the same molecule?
**A.** 7.09 µM

**Q.** What about the GI50 (MCF7 breast) of the same molecule?
**A.** 3.19 µM

**Q.** And the TGI (MCF7 breast)?
**A.** 10.9 µM

**Q.** What about the GI50 (MDA-MB-231 breast) of the same molecule?
**A.** 2.28 µM

**Q.** And the TGI (MDA-MB-231 breast)?
**A.** 7.92 µM

**Q.** What about the GI50 (MDA-MB-435) of the same molecule?
**A.** 3.17 µM

**Q.** What about the TGI (MDA-MB-435) of the same molecule?
**A.** 14 µM

**Q.** What about the GI50 (MOLT-4 leukemia) of the same molecule?
**A.** 3.54 µM

**Q.** And the TGI (MOLT-4 leukemia)?
**A.** 16.5 µM

**Q.** And the GI50 (NCI-H226 lung)?
**A.** 4.03 µM

**Q.** What about the TGI (NCI-H226 lung) of the same molecule?
**A.** 16.7 µM
